For seven molecules, GI50 and TGI results are on record in PubChem BioAssay (NCI).

Holding throughout (assay): growth of human tumour cells (NCI), 48 h
The test system of assay [1] is HS 578T breast.
Assay [2] deals with HCC-2998 colon.
For assay [3], the system named is SK-MEL-2 melanoma.
In assay [4] the test system is PC-3 prostate.
Assay [5] deals with MALME-3M melanoma.
In assay [6] the test system is HCT-116 colon.
Assay [7] deals with CAKI-1 renal.
The test system of assay [8] is CCRF-CEM leukemia.
In assay [9] the test system is RXF 393 renal.
In assay [10] the test system is SF-268 CNS.

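Where inhibition never reached the appropriate level, the endpoint shown equals the highest concentration tested. Otherwise, values were interpolated linearly from a five-concentration, 48-hour dose response in 96-well plates. Here, GI50 denotes the concentration required for 50% inhibition of growth. TGI: total growth inhibition.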 A value given as a limit tells only on which side of the number the result lay.

As to `C/C(=N\O)c1ccc(Nc2cc(-c3ccccc3)nc3c(O)cccc23)cc1`, the GI50 was 15.9 µM in [1]; 10.6 µM in assay [2]; 17.3 µM in [3]; 17.1 µM in assay [4]; 16.1 µM in assay [5]; 13.2 µM in assay [6]. Besides, the GI50 was 10.2 µM in assay [7], 3.51 µM in assay [8] and 7.47 µM in [9]. For the same molecule, the TGI is 62.4 µM in [1]; 23.4 µM in assay [2]; 36.8 µM in [3]; 41.9 µM in assay [4]; 30.3 µM in assay [5]; 25.9 µM in [6]. Moreover, the TGI in [7] was 35 µM; in assay [8], 14.8 µM; in [9], 24.7 µM.
Regarding `COc1cc(Nc2nccc(-c3cnn4ncccc34)n2)cc(OC)c1`, the GI50 was 0.0697 µM in assay [10]; 0.096 µM in [1]; 0.104 µM in assay [2]; 0.0843 µM in assay [4]; 0.132 µM in [5]; 0.0439 µM in [6]. The GI50 in [7] was 0.0703 µM; in assay [8], 0.0668 µM; in assay [9], 0.0455 µM. Besides, the TGI was 0.48 µM in assay [10]; greater than 5.62 µM in assay [1]; 1.71 µM in assay [2]; 2.74 µM in assay [4]; 1.26 µM in [5]; greater than 14.9 µM in assay [6]. The TGI in assay [7] worked out at 4.02 µM; in assay [9], 0.131 µM.
Consider `COc1ccc2c(C(=O)NCCCCCC(=O)O)cc3cc4c(cc3c2c1)OCO4`, for which the GI50 is 58 µM in assay [10]; greater than 100 µM in assay [1]; greater than 100 µM in assay [2]; greater than 100 µM in assay [4]; greater than 100 µM in [5]; greater than 100 µM in assay [6]. Also, the GI50 in assay [7], in assay [8] and in assay [9] was greater than 100 µM throughout. For the same molecule, the TGI in assay [10], in [1], in [2], in [4], in assay [5] and in assay [6] was greater than 100 µM in each case. Also, the TGI in assay [7], in assay [8] and in assay [9] was greater than 100 µM throughout.
Consider `Nc1c(S(=O)(=O)O)cc2c(c1Cl)C(=O)c1ccccc1C2=O`, for which the GI50 in [10], in assay [1], in [2], in [4], in assay [5] and in assay [6] was greater than 100 µM in each case. Also, the GI50 in assay [7], in assay [8] and in assay [9] was greater than 100 µM in each case. Also, the TGI in [10], in [1], in [2], in assay [4], in assay [5] and in [6] was greater than 100 µM throughout. For the same molecule, the TGI in assay [7], in assay [8] and in assay [9] was greater than 100 µM throughout.
In the case of `Cc1nc(N(C)C)nc(-c2cccc(-c3ccn(CCN(C)C)n3)c2)c1C`, the GI50 in assay [10] is greater than 20 µM; in assay [1] it was 12.7 µM; in assay [2], greater than 20 µM; in [3], greater than 20 µM; in assay [4] it was greater than 20 µM; in assay [6] it was greater than 20 µM. In addition, the GI50 in assay [7] is 19.5 µM; in [8], greater than 20 µM; in [9], greater than 20 µM. The TGI in assay [10], in [1], in [2], in [3], in [4] and in assay [6] was greater than 20 µM each time. Further, the TGI in [7], in assay [8] and in [9] was greater than 20 µM each time.
As for `Cc1cccc(C)c1NC(=O)/C(CC(=O)CC(c1ccccc1)c1c(O)c2ccccc2oc1=O)=N/O` (stereo not given), the TGI in assay [10], in assay [1], in assay [2], in assay [3], in [4] and in assay [6] was greater than 100 µM each time. The TGI in assay [7], in [8] and in assay [9] was greater than 100 µM each time.
Turning to `O=C(Nc1ccc(-n2cc(-c3ccncc3)c(-c3ccc(Cl)c(O)c3)n2)cc1)c1ccc(Cl)c(C(F)(F)F)c1`, the GI50 in assay [10] was 2.68 µM; in assay [1], 0.538 µM; in assay [2], 1.69 µM; in [3] it was 1.61 µM; in assay [4], 1.15 µM; in [6] it was 0.918 µM. Also, the GI50 is 1.7 µM in assay [7], 1.18 µM in assay [8] and 0.213 µM in assay [9]. The TGI in assay [10] is greater than 31.8 µM; in assay [2], 6.96 µM; in [3], 4.69 µM; in assay [4] it was 30.8 µM; in assay [6], 2.45 µM; in assay [7], 3.8 µM. The TGI in [8] is greater than 100 µM; in [9], 0.606 µM.
